# Source: PubChem BioAssay AID2060906 (Molecular Pharmacology Branch, DTP, NCI, 2025)
# System: 485176-168-R4-J1-PDC complex spheroid growth
# Test: Anticancer human tumor 485176-168-R4-J1-PDC patient-derived pancreatic adenocarcinoma cell line growth inhibition [RAS]
# Conditions: for IC50: curve of first compound; for viability, T/C: stronger effect = lower value
# Procedure, shortened: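 Agents were tested in combination matrices in half-log decrements from a top concentration at or near clinical Cmax (10 microM if undetermined). Targets were multi-cell spheroids of tumour lines plus HUVEC and MSC stromal cells.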
# [1] = second compound 0.0316 µM, first compound 0.0316 µM
# [2] = second compound 0.0316 µM, first compound 0.1 µM
# [3] = second compound 0.0316 µM, first compound 0.316 µM
# [4] = second compound 0.0316 µM, first compound 1 µM
# [5] = second compound 0.1 µM, first compound 0.0316 µM
# [6] = second compound 0.1 µM, first compound 0.1 µM
# [7] = second compound 0.1 µM, first compound 0.316 µM
# [8] = second compound 0.1 µM, first compound 1 µM
# [9] = second compound 0.316 µM, first compound 0.0316 µM
# [10] = second compound 0.316 µM, first compound 0.1 µM
# [11] = second compound 0.316 µM, first compound 0.316 µM
# [12] = second compound 0.316 µM, first compound 1 µM
# [13] = second compound 1 µM, first compound 0.0316 µM
# [14] = second compound 1 µM, first compound 0.1 µM
# [15] = second compound 1 µM, first compound 0.316 µM
# [16] = second compound 1 µM, first compound 1 µM
# [17] = second compound 3.16 µM, first compound 0.0316 µM
# [18] = second compound 3.16 µM, first compound 0.1 µM
# [19] = second compound 3.16 µM, first compound 0.316 µM
# [20] = second compound 3.16 µM, first compound 1 µM
# [21] = second compound 10 µM, first compound 0.0316 µM
# [22] = second compound 10 µM, first compound 0.1 µM
# [23] = second compound 10 µM, first compound 0.316 µM
# [24] = second compound 10 µM, first compound 1 µM
# 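Also: spheroids exposed to compounds for seven days before readout.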
# 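For viability, T/C in this document: luminescence viability expressed relative to DMSO vehicle wells set as 100%.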
structure (smiles),measurement,setting,value
C=CC(=O)N1CCN(c2nc(OCC3CCCN3C)nc3c(F)c(-c4nc(N)cc(C)c4C(F)(F)F)c(Cl)cc23)C(C)C1 (stereo unspecified) + C#Cc1c(F)ccc2cc(O)cc(-c3ncc4c(N5CC6CCC(C5)N6)nc(OCC56CCCN5CC(F)C6)nc4c3F)c12,IC50,second compound 0.0316 µM,> 1000 nM
same,IC50,second compound 0.1 µM,> 1000 nM
same,IC50,second compound 0.316 µM,> 1000 nM
same,IC50,second compound 1 µM,> 1000 nM
same,IC50,second compound 3.16 µM,> 1000 nM
same,IC50,second compound 10 µM,> 1000 nM
same,"viability, T/C","second compound 0.0316 µM, first compound 0.00316 µM",103%
same,"viability, T/C","second compound 0.0316 µM, first compound 0.01 µM",88.9%
same,"viability, T/C",[1],88.5%
same,"viability, T/C",[2],105%
same,"viability, T/C",[3],96.8%
same,"viability, T/C",[4],103%
same,"viability, T/C","second compound 0.1 µM, first compound 0.00316 µM",117%
same,"viability, T/C","second compound 0.1 µM, first compound 0.01 µM",109%
same,"viability, T/C",[5],99.2%
same,"viability, T/C",[6],102%
same,"viability, T/C",[7],108%
same,"viability, T/C",[8],103%
same,"viability, T/C","second compound 0.316 µM, first compound 0.00316 µM",86.8%
same,"viability, T/C","second compound 0.316 µM, first compound 0.01 µM",93.6%
same,"viability, T/C",[9],103%
same,"viability, T/C",[10],103%
same,"viability, T/C",[11],87.3%
same,"viability, T/C",[12],89.9%
same,"viability, T/C","second compound 1 µM, first compound 0.00316 µM",115%
same,"viability, T/C","second compound 1 µM, first compound 0.01 µM",83.1%
same,"viability, T/C",[13],77.5%
same,"viability, T/C",[14],101%
same,"viability, T/C",[15],97.1%
same,"viability, T/C",[16],86.1%
same,"viability, T/C","second compound 3.16 µM, first compound 0.00316 µM",115%
same,"viability, T/C","second compound 3.16 µM, first compound 0.01 µM",92.2%
same,"viability, T/C",[17],85.3%
same,"viability, T/C",[18],104%
same,"viability, T/C",[19],98.1%
same,"viability, T/C",[20],70.3%
same,"viability, T/C","second compound 10 µM, first compound 0.00316 µM",94.1%
same,"viability, T/C","second compound 10 µM, first compound 0.01 µM",81.8%
same,"viability, T/C",[21],95.9%
same,"viability, T/C",[22],94.6%
same,"viability, T/C",[23],95.2%
same,"viability, T/C",[24],94.8%
CC(=O)OC12COC1CC(O)C1(C)C(=O)C(O)C3=C(C)C(OC(=O)C(O)C(NC(=O)OC(C)(C)C)c4ccccc4)CC(O)(C(OC(=O)c4ccccc4)C21)C3(C)C (stereo unspecified) + C#Cc1c(F)ccc2cc(O)cc(-c3ncc4c(N5CC6CCC(C5)N6)nc(OCC56CCCN5CC(F)C6)nc4c3F)c12,IC50,second compound 0.0316 µM,< 31.6 nM
same,IC50,second compound 0.1 µM,< 31.6 nM
same,IC50,second compound 0.316 µM,< 31.6 nM
same,IC50,second compound 1 µM,< 31.6 nM
same,IC50,second compound 3.16 µM,< 31.6 nM
same,IC50,second compound 10 µM,< 31.6 nM
same,"viability, T/C",[1],18.5%
same,"viability, T/C",[2],15.3%
same,"viability, T/C",[3],14.6%
same,"viability, T/C",[4],13.5%
same,"viability, T/C","second compound 0.0316 µM, first compound 3.16 µM",18.5%
same,"viability, T/C","second compound 0.0316 µM, first compound 10 µM",21.8%
same,"viability, T/C",[5],19.1%
same,"viability, T/C",[6],14.5%
same,"viability, T/C",[7],13.7%
same,"viability, T/C",[8],14.9%
same,"viability, T/C","second compound 0.1 µM, first compound 3.16 µM",19.8%
same,"viability, T/C","second compound 0.1 µM, first compound 10 µM",21.2%
same,"viability, T/C",[9],15.1%
same,"viability, T/C",[10],12.4%
same,"viability, T/C",[11],13.4%
same,"viability, T/C",[12],11.6%
same,"viability, T/C","second compound 0.316 µM, first compound 3.16 µM",16.6%
same,"viability, T/C","second compound 0.316 µM, first compound 10 µM",19.4%
same,"viability, T/C",[13],17%
same,"viability, T/C",[14],15.8%
same,"viability, T/C",[15],12.8%
same,"viability, T/C",[16],11.8%
same,"viability, T/C","second compound 1 µM, first compound 3.16 µM",19.2%
same,"viability, T/C","second compound 1 µM, first compound 10 µM",20.6%
same,"viability, T/C",[17],20.6%
same,"viability, T/C",[18],16.5%
same,"viability, T/C",[19],15.2%
same,"viability, T/C",[20],13.8%
same,"viability, T/C","second compound 3.16 µM, first compound 3.16 µM",16.5%
same,"viability, T/C","second compound 3.16 µM, first compound 10 µM",20.6%
same,"viability, T/C",[21],16.5%
same,"viability, T/C",[22],12.2%
same,"viability, T/C",[23],13.3%
same,"viability, T/C",[24],11.7%
same,"viability, T/C","second compound 10 µM, first compound 3.16 µM",16%
same,"viability, T/C","second compound 10 µM, first compound 10 µM",19%
CCc1c2c(nc3ccc(O)cc13)-c1cc3c(c(=O)n1C2)COC(=O)[C@]3(O)CC + C#Cc1c(F)ccc2cc(O)cc(-c3ncc4c(N5CC6CCC(C5)N6)nc(OCC56CCCN5CC(F)C6)nc4c3F)c12,IC50,second compound 0.0316 µM,19.3 nM
same,IC50,second compound 0.1 µM,13.4 nM
same,IC50,second compound 0.316 µM,16.4 nM
same,IC50,second compound 1 µM,17.8 nM
same,IC50,second compound 3.16 µM,22.1 nM
same,IC50,second compound 10 µM,27.2 nM
same,"viability, T/C","second compound 0.0316 µM, first compound 0.000949 µM",93.9%
same,"viability, T/C","second compound 0.0316 µM, first compound 0.003 µM",82.8%
same,"viability, T/C","second compound 0.0316 µM, first compound 0.00949 µM",71.2%
same,"viability, T/C","second compound 0.0316 µM, first compound 0.03 µM",36.8%
same,"viability, T/C","second compound 0.0316 µM, first compound 0.0949 µM",16.7%
same,"viability, T/C","second compound 0.0316 µM, first compound 0.3 µM",7.74%
same,"viability, T/C","second compound 0.1 µM, first compound 0.000949 µM",102%
same,"viability, T/C","second compound 0.1 µM, first compound 0.003 µM",96.7%
same,"viability, T/C","second compound 0.1 µM, first compound 0.00949 µM",52.9%
same,"viability, T/C","second compound 0.1 µM, first compound 0.03 µM",32.2%
same,"viability, T/C","second compound 0.1 µM, first compound 0.0949 µM",18.3%
same,"viability, T/C","second compound 0.1 µM, first compound 0.3 µM",6.56%
same,"viability, T/C","second compound 0.316 µM, first compound 0.000949 µM",112%
same,"viability, T/C","second compound 0.316 µM, first compound 0.003 µM",107%
same,"viability, T/C","second compound 0.316 µM, first compound 0.00949 µM",60.7%
same,"viability, T/C","second compound 0.316 µM, first compound 0.03 µM",35.2%
same,"viability, T/C","second compound 0.316 µM, first compound 0.0949 µM",16%
same,"viability, T/C","second compound 0.316 µM, first compound 0.3 µM",6.47%
same,"viability, T/C","second compound 1 µM, first compound 0.000949 µM",102%
same,"viability, T/C","second compound 1 µM, first compound 0.003 µM",94.4%
same,"viability, T/C","second compound 1 µM, first compound 0.00949 µM",63%
same,"viability, T/C","second compound 1 µM, first compound 0.03 µM",38.6%
same,"viability, T/C","second compound 1 µM, first compound 0.0949 µM",15.9%
same,"viability, T/C","second compound 1 µM, first compound 0.3 µM",7.94%
same,"viability, T/C","second compound 3.16 µM, first compound 0.000949 µM",94.7%
same,"viability, T/C","second compound 3.16 µM, first compound 0.003 µM",101%
same,"viability, T/C","second compound 3.16 µM, first compound 0.00949 µM",69.3%
same,"viability, T/C","second compound 3.16 µM, first compound 0.03 µM",42.9%
same,"viability, T/C","second compound 3.16 µM, first compound 0.0949 µM",19.1%
same,"viability, T/C","second compound 3.16 µM, first compound 0.3 µM",9.06%
same,"viability, T/C","second compound 10 µM, first compound 0.000949 µM",127%
same,"viability, T/C","second compound 10 µM, first compound 0.003 µM",90.6%
same,"viability, T/C","second compound 10 µM, first compound 0.00949 µM",77.9%
same,"viability, T/C","second compound 10 µM, first compound 0.03 µM",46.6%
same,"viability, T/C","second compound 10 µM, first compound 0.0949 µM",17.7%
same,"viability, T/C","second compound 10 µM, first compound 0.3 µM",6.96%
